{
  "source": "patent US20250179024A1",
  "about": "“AMYLOID AND ASSOCIATED PATHOLOGY MODULATORS AND METHODS THEREOF” (Jawaharlal Nehru Centre for Advanced Scientific Research, priority 2022, published 2025)",
  "key": {"Aβ fibrils": {"molecular_target": "T1, Aβ fibrils (Homo sapiens, UniProt P05067)", "T1 construct": "is a 42 amino acid proteolytic product from the amyloid precursor protein; purchased Invitrogen", "T1 sequence (P05067 672-713 limits assumed)": "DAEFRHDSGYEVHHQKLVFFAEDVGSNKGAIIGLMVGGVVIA", "experiment": "Dot blot assay of Aβ fibrillar aggregation inhibition (OC antibody)", "format": "biochemical", "settings": "Aβ 10 μM, NMIs 20 μM, PBS pH 7.4, 37° C., 48 h", "procedure": "Aggregation modulation by toxic Aβ aggregates were assessed and were quantified by dot blot assay. Aβ peptide (10 μM) was dissolved in phosphate buffered saline (PBS, 10 mM, pH 7.4), incubated alone and with NMIs (20 μM) at 37° C. for 48 h. For concentration dependent inhibition, 10 μM Aβ peptide was incubated with 1, 2, 5, 10 and 20 μM of NMIs and incubated. Samples for oligomer inhibition studies were prepared by incubating Aβ alone and with NMIs at 4° C. for 24 and subjected to dot blot analysis. For dissolution studies, Aβ peptide alone was incubated in PBS for 48 h to prepare fibrils and then incubated with NMIs further for 48 h. For dot blot experiment, 5 μL of sample was blotted on activated PVDF (polyvinylidene fluoride) membrane in triplicates and air dried. The membrane was blocked with skimmed milk powder for 1 h at room temperature. The blot paper was washed with tris-buffered saline with 0.01% Tween 20 (TBST) three times for 5 min. Blot paper was treated with fibril specific OC primary antibody (Rabbit, 1:1000 dilution) overnight at 4° C. For oligomers blot A11 anti-oligomer antibody (Rabbit 1:1000) was used. Blot was washed thrice with TBST and treated with HRP-conjugated antirabbit secondary antibody (1:5000 dilutions) for 1 h at room temperature. The bolt was washed thrice for 5 min with TBST and developed with ECL reagent (Biorad) and imaged with ChemiDoc BioRad gel documentation system in autoexposure mode. Blots were analyzed and quantified by ImageJ software. The ability of the NMIs, the compounds of the present disclosure M1-M4 to inhibit Aβ aggregation and dissolve the preformed fibrillar aggregates was evaluated by dot blot assay as explained in Example 2 above. Aβ (10 μM) was incubated alone and with NMIs (20 μM) in phosphate buffer saline (PBS, 10 mM and pH 7.4) at 37° C. for 48 h to form Aβ fibrillar aggregates. The samples were blotted and probed with fibril-selective OC antibody (rabbit anti-human amyloid fibrils). […] M3 was further assessed for inhibitory effect at lower concentrations. […] It has been observed that the oligomers are a highly toxic species compared to Aβ fibrillar aggregates. The ability of NMIs (M3) to inhibit the formation of Aβ oligomers was assessed by dot blot assay. Aβ peptide (10 μM) was incubated with NMIs at 4° C. for 24 h followed by probing with A11 oligomer-specific antibody. […] Native PAGE and western blot analysis was carried out to understand the size distribution of Aβ aggregated species. […] In order to analyse the higher order aggregates not permeable in the gel matrix and the morphological characteristics, Aβ samples were subjected to atomic force microscopy (AFM) imaging."}, "Aβ oligomers": {"molecular_target": "T2, Aβ oligomers (Homo sapiens, UniProt P05067)", "T2 construct": "is a 42 amino acid proteolytic product from the amyloid precursor protein; purchased Invitrogen", "T2 sequence (P05067 672-713 limits assumed)": "as above", "experiment": "Dot blot assay of Aβ oligomer inhibition (A11 antibody)", "format": "biochemical", "settings": "Aβ 10 μM, NMIs 20 μM, 4° C., 24 h", "procedure": "Aggregation modulation by toxic Aβ aggregates were assessed and were quantified by dot blot assay. Aβ peptide (10 μM) was dissolved in phosphate buffered saline (PBS, 10 mM, pH 7.4), incubated alone and with NMIs (20 μM) at 37° C. for 48 h. For concentration dependent inhibition, 10 μM Aβ peptide was incubated with 1, 2, 5, 10 and 20 μM of NMIs and incubated. Samples for oligomer inhibition studies were prepared by incubating Aβ alone and with NMIs at 4° C. for 24 and subjected to dot blot analysis. For dissolution studies, Aβ peptide alone was incubated in PBS for 48 h to prepare fibrils and then incubated with NMIs further for 48 h. For dot blot experiment, 5 μL of sample was blotted on activated PVDF (polyvinylidene fluoride) membrane in triplicates and air dried. The membrane was blocked with skimmed milk powder for 1 h at room temperature. The blot paper was washed with tris-buffered saline with 0.01% Tween 20 (TBST) three times for 5 min. Blot paper was treated with fibril specific OC primary antibody (Rabbit, 1:1000 dilution) overnight at 4° C. For oligomers blot A11 anti-oligomer antibody (Rabbit 1:1000) was used. […] Blots were analyzed and quantified by ImageJ software. […] The ability of NMIs (M3) to inhibit the formation of Aβ oligomers was assessed by dot blot assay. […]"}, "[1]": {"molecular_target": "T3, preformed Aβ fibrillar aggregates (Homo sapiens, UniProt P05067)", "T3 construct": "is a 42 amino acid proteolytic product from the amyloid precursor protein; purchased Invitrogen", "T3 sequence (P05067 672-713 limits assumed)": "as above", "experiment": "Dot blot assay of dissolution of preformed Aβ fibrillar aggregates", "format": "biochemical", "settings": "Aβ aggregates 10 μM, NMIs 20 μM, 48 h", "procedure": "Aggregation modulation by toxic Aβ aggregates were assessed and were quantified by dot blot assay. Aβ peptide (10 μM) was dissolved in phosphate buffered saline (PBS, 10 mM, pH 7.4), incubated alone and with NMIs (20 μM) at 37° C. for 48 h. For concentration dependent inhibition, 10 μM Aβ peptide was incubated with 1, 2, 5, 10 and 20 μM of NMIs and incubated. Samples for oligomer inhibition studies were prepared by incubating Aβ alone and with NMIs at 4° C. for 24 and subjected to dot blot analysis. For dissolution studies, Aβ peptide alone was incubated in PBS for 48 h to prepare fibrils and then incubated with NMIs further for 48 h. For dot blot experiment, 5 μL of sample was blotted on activated PVDF (polyvinylidene fluoride) membrane in triplicates and air dried. The membrane was blocked with skimmed milk powder for 1 h at room temperature. The blot paper was washed with tris-buffered saline with 0.01% Tween 20 (TBST) three times for 5 min. Blot paper was treated with fibril specific OC primary antibody (Rabbit, 1:1000 dilution) overnight at 4° C. For oligomers blot A11 anti-oligomer antibody (Rabbit 1:1000) was used. Blot was washed thrice with TBST and treated with HRP-conjugated antirabbit secondary antibody (1:5000 dilutions) for 1 h at room temperature. The bolt was washed thrice for 5 min with TBST and developed with ECL reagent (Biorad) and imaged with ChemiDoc BioRad gel documentation system in autoexposure mode. Blots were analyzed and quantified by ImageJ software. The fibrillar aggregates were formed by incubating Aβ peptide (10 μM) in PBS (pH 7.4) at 37° C. for 48 h. The aggregate samples were treated with NMIs (20 μM) for 48 h followed by dot blot analysis. […] These studies confirmed that M3 as the potential candidate to dissolve Aβ fibrillar aggregates to possibly nontoxic species."}, "Aβ": {"molecular_target": "T4, Aβ (Homo sapiens, UniProt P05067)", "T4 construct": "is a 42 amino acid proteolytic product from the amyloid precursor protein; purchased Invitrogen", "T4 sequence (P05067 672-713 limits assumed)": "as above", "experiment": "AFM imaging of Aβ samples", "settings": "Aβ 10 μM, NMIs 20 μM; FIG. 1C", "procedure": "AFM imaging was done to understand the morphological characteristics of Aβ and NMI treated samples. The samples from Aβ aggregation inhibition and dissolution studies were used for AFM imaging. 25 μL of sample was drop-casted on freshly cleaved mica substrate. The Aβ samples were allowed to adhere to substrate surface for 15 min, washed with filtered MiliQ water and air dried. The samples were imaged in Scan assist Air mode in Bioscope resolve AFM system (Bruker). The images were processed and analyzed using NanoScope analysis software. […] It has been observed that the oligomers are a highly toxic species compared to Aβ fibrillar aggregates. The ability of NMIs (M3) to inhibit the formation of Aβ oligomers was assessed by dot blot assay. Aβ peptide (10 μM) was incubated with NMIs at 4° C. for 24 h followed by probing with A11 oligomer-specific antibody. […] Native PAGE and western blot analysis was carried out to understand the size distribution of Aβ aggregated species. […] In order to analyse the higher order aggregates not permeable in the gel matrix and the morphological characteristics, Aβ samples were subjected to atomic force microscopy (AFM) imaging."}, "[2]": {"experiment": "Metal chelation by UV-visible absorbance and fluorescence spectra", "format": "physicochemical", "settings": "NMIs 20 μM, Cu or Zn 2.5 to 40 μM", "text": "The compounds of the present disclosure (NMIs) were designed to chelate with metals (Cu and Zn) and alleviate the metal-dependent Aβ toxicity. […] The change in absorbance and fluorescence spectra of NMIs were monitored to understand the interaction with Cu(II) and Zn(II). […] The fluorescence intensity of M3 at 525 nm decreased with the increasing concentration of Cu(II) or Zn(II) (FIGS. 6(A & B))."}, "[3]": {"molecular_target": "T5, Aβ in the presence of Zn (II) (Homo sapiens, UniProt P05067)", "T5 construct": "is a 42 amino acid proteolytic product from the amyloid precursor protein; purchased Invitrogen", "T5 sequence (P05067 672-713 limits assumed)": "as above", "experiment": "Zn-dependent Aβ aggregation, native PAGE and western blot", "format": "biochemical", "settings": "Aβ 10 μM, Zn (II) 20 μM, NMIs 20 μM, 37° C., 48 h", "procedure": "The samples were prepared by incubating Aβ42 with specific concentration of NMI compounds of present disclosure and metal ions for 48 h and then subjected to 6% native polyacrylamide gel electrophoresis (Native-PAGE) in tris-glycine buffer. The lower molecular weight aggregates permeabilized through the gel and resolved in the gel. Higher molecular aggregates stuck in the upper part of wells and potentially carried in gel. Then the protein was transferred to PVDF membrane for 4 h at cold condition maintained using ice cold transfer buffer and immersing the transfer apparatus in ice. Then the blots were continued similar to dot blots.\nThe absorbance and fluorescence spectroscopy studies together with mass spectrometry data confirmed the selective Cu (II) or Zn (II) chelation property of M1 and M3. […] Aβ (10 μM) was incubated in the presence of Cu (II) or Zn (II) (20 μM) with NMIs at 37° C. for 48 h and the samples were subjected to native PAGE and western blot analysis. […] Modulation of Zn-dependent Aβ aggregation by M4 was attributed to its two Zn (II) chelation centres. M3 with dopamine and DPA moieties effectively modulated both Cu (II) and Zn (II)-dependent Aβ aggregation. The effect of NMIs on the morphological outcome of metal-dependent Aβ aggregation was visualized by AFM imaging (FIGS. 1E and 1F). Aβ in the presence of Cu (II) and Zn (II) formed dense and thick fibrils."}},
  "data": [
    {"compound": "CN(C)c1ccc2c3c(cccc13)C(=O)N(CCN(Cc1ccccn1)Cc1ccccn1)C2=O", "note": "[M2, 2-(2-(bis(pyridin-2-ylmethyl)amino)ethyl)-6-(dimethylamino)-1H-benzo[de]isoquinoline-1,3(2H)-dione]", "values": [
      {"measurement": "inhibition of the formation of Aβ fibrils", "setting": "Aβ fibrils", "value": "~11", "unit": "%"},
      {"measurement": "oligomer inhibition", "setting": "Aβ oligomers", "value": 40, "unit": "%"},
      {"measurement": "dissolution efficiency", "setting": "[1]", "value": 25, "unit": "%"},
      {"measurement": "morphology of Aβ sample, aggregation inhibition", "setting": "Aβ", "value": "fibrillar structures"},
      {"measurement": "interaction with Cu (II) and Zn (II), change in absorbance spectra", "setting": "[2]", "value": "no significant change in the spectra"}
    ]},
    {"compound": "O=C1c2cccc3c(N(Cc4ccccn4)Cc4ccccn4)ccc(c23)C(=O)N1CCN(Cc1ccccn1)Cc1ccccn1", "note": "[M4, 6-(bis(pyridin-2-ylmethyl)amino)-2-(2-(bis(pyridin-2-ylmethyl)amino)ethyl)-1H-benzo[de]isoquinoline-1,3(2H)-dione]", "values": [
      {"measurement": "inhibition of the formation of Aβ fibrils", "setting": "Aβ fibrils", "value": "~11", "unit": "%"},
      {"measurement": "dissolution efficiency", "setting": "[1]", "value": 43, "unit": "%"},
      {"measurement": "morphology of Aβ sample, aggregation inhibition", "setting": "Aβ", "value": "fibrillar structures"},
      {"measurement": "interaction with Cu (II) and Zn (II), change in absorbance spectra", "setting": "[2]", "value": "no significant change in the spectra"},
      {"measurement": "Zn-dependent Aβ aggregation", "setting": "[3]", "value": "reduce Zn-dependent Aβ aggregation"}
    ]}
  ]
}
